Assay results taken from patent publication US6737383B1, “Herbicidal oxadiazolidines” (priority 1999, dated 2004).

Assays:
[1] = test system: Alexandergrass; test: Test D Alexandergrass; format: in vivo, Brachiaria plantaginea; settings: Preemergence, 0 to 100 scale
Outline: (§1)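 Greenhouse pots, seeds in sandy loam; compounds formulated in non-phytotoxic solvent with surfactant; preemergence treatments went on the soil surface within one day of planting. Injury rated visually 14 to 21 days after application on a 0 (none) to 100 (complete control) scale.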

[2] = test system: Green foxtail; test: Test D green foxtail; format: in vivo; settings: Preemergence, 0 to 100 scale
Outline: as §1

[3] = test system: common groundsel; test: Test D common groundsel; format: in vivo, Senecio vulgaris; settings: Preemergence, 0 to 100 scale
Outline: as §1

[4] = test system: dallisgrass; test: Test D dallisgrass; format: in vivo, Paspalum dilatatum; settings: Preemergence, 0 to 100 scale
Outline: as §1

[5] = test system: Johnson grass; test: Test D Johnson grass; format: in vivo, Sorghum halepense; settings: Preemergence, 0 to 100 scale
Outline: as §1

[6] = test system: goosegrass; test: Test D goosegrass; format: in vivo, Eleusine indica; settings: Preemergence, 0 to 100 scale
Outline: as §1

[7] = test system: common ragweed; test: Test D common ragweed; format: in vivo, Ambrosia elatior; settings: Preemergence, 0 to 100 scale
Outline: as §1

[8] = test system: itchgrass; test: Test D itchgrass; format: in vivo, Rottboellia exaltata; settings: Preemergence, 0 to 100 scale
Outline: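 Scoring used a 0–100 visual injury scale, with 0 meaning no effect and 100 complete control, assessed 14–21 days after application alongside untreated pots. Preemergence treatments went onto sandy loam surfaces of separately potted seeds within a day of sowing.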

[9] = test system: large crabgrass; test: Test D large crabgrass; format: in vivo, Digitaria sanguinalis; settings: Preemergence, 0 to 100 scale
Outline: as §1

[10] = test system: Green foxtail; test: Test D green foxtail; format: in vivo
Outline: as §1

[11] = test system: sandbur; test: Test D sandbur; format: in vivo, Cenchrus echinatus; settings: Preemergence, 0 to 100 scale
Outline: as §1

[12] = test system: Spanishneedles; test: Test D Spanishneedles; format: in vivo, Bidens bipinnata; settings: Preemergence, 0 to 100 scale
Outline: as §1

[13] = test system: purple nutsedge; test: Test D purple nutsedge; format: in vivo, Cyperus rotundus; settings: Preemergence, 0 to 100 scale
Outline: as §1

[14] = test system: bermuda-grass; test: Test D bermudagrass; format: in vivo, Cynodon dactylon; settings: Preemergence, 0 to 100 scale
Outline: as §1

[15] = test system: pitted morningglory; test: Test D pitted morningglory; format: in vivo, Ipomoea lacunosa; settings: Preemergence, 0 to 100 scale
Outline: as §1

[16] = test system: surinam grass; test: Test D surinam grass; format: in vivo, Brachiaria decumbens
Outline: as §1

[17] = test system: common pursiane; test: Test D common purslane; format: in vivo, Portulaca oleracea; settings: Preemergence, 0 to 100 scale
Outline: as §1

[18] = Rate 16 g/ha, 0 no injury, 100 complete control
[19] = Rate 32 g/ha, 0 no injury, 100 complete control
[20] = Rate 64 g/ha, 0 no injury, 100 complete control
[21] = Rate 125 g/ha, 0 no injury, 100 complete control
[22] = Rate 16 g/ha; Preemergence; 0 to 100 scale, 0 no injury, 100 complete control
[23] = Rate 32 g/ha; Preemergence; 0 to 100 scale, 0 no injury, 100 complete control
[24] = Rate 64 g/ha, Preemergence; 0 to 100 scale, 0 no injury, 100 complete control
[25] = Rate 125 g/ha, Preemergence; 0 to 100 scale, 0 no injury, 100 complete control
[26] = Rate 250 g/ha; Preemergence; 0 to 100 scale
[27] = Rate 500 g/ha, Preemergence; 0 to 100 scale

In the case of CC(C)N(C(=O)n1oc(=O)n(Cc2ccccc2)c1=O)c1ccc(F)cc1 [Compound 78], the “Plant response rating, Alexandergrass” value [1, 18] is reported as 0, the “Plant response rating, Alexandergrass” value [1, 19] is reported as 0 and the “Plant response rating, Alexandergrass” value [1, 20] is reported as 30. The “Plant response rating, Alexandergrass” value [1, 21] was 75, the “Plant response rating, Alexandergrass” value ([1]; Rate 250 g/ha) was 75 and the “Plant response rating, Alexandergrass” value ([1]; Rate 500 g/ha) was 100. The “Plant response rating, Green foxtail” value ([2]; Rate 250 g/ha) was 100, the “Plant response rating, Green foxtail” value ([2]; Rate 500 g/ha) was 100 and the “Plant response rating, Com. groundsel” value [3, 18] was 0. The “Plant response rating, Com. groundsel” value [3, 19] was 0, the “Plant response rating, Com. groundsel” value [3, 20] was 0 and the “Plant response rating, Com. groundsel” value [3, 21] was 0. The “Plant response rating, Com. groundsel” value ([3]; Rate 250 g/ha) was 0, the “Plant response rating, Com. groundsel” value ([3]; Rate 500 g/ha) was 0 and the “Plant response rating, Dallisgrass” value [4, 18] was 0. For the same molecule, the “Plant response rating, Dallisgrass” value [4, 19] was 0, the “Plant response rating, Dallisgrass” value [4, 20] was 75 and the “Plant response rating, Dallisgrass” value [4, 21] was 100. The “Plant response rating, Dallisgrass” value ([4]; Rate 250 g/ha) was 100, the “Plant response rating, Dallisgrass” value ([4]; Rate 500 g/ha) was 100 and the “Plant response rating, Johnsongrass” value [5, 18] was 0. For the same molecule, the “Plant response rating, Johnsongrass” value [5, 19] was 0, the “Plant response rating, Johnsongrass” value [5, 20] was 0 and the “Plant response rating, Johnsongrass” value [5, 21] was 0. The “Plant response rating, Johnsongrass” value ([5]; Rate 250 g/ha) was 20, the “Plant response rating, Johnsongrass” value ([5]; Rate 500 g/ha) was 20 and the “Plant response rating, Goosegrass” value [6, 18] was 10. For the same molecule, the “Plant response rating, Goosegrass” value [6, 19] was 10, the “Plant response rating, Goosegrass” value [6, 20] was 85 and the “Plant response rating, Goosegrass” value [6, 21] was 98. For the same molecule, the “Plant response rating, Goosegrass” value ([6]; Rate 250 g/ha) was 98, the “Plant response rating, Goosegrass” value ([6]; Rate 500 g/ha) was 100 and the “Plant response rating, C. ragweed” value [7, 18] was 0. For the same molecule, the “Plant response rating, C. ragweed” value [7, 19] was 0, the “Plant response rating, C. ragweed” value [7, 20] was 0 and the “Plant response rating, C. ragweed” value [7, 21] was 0. For the same molecule, the “Plant response rating, C. ragweed” value ([7]; Rate 250 g/ha) was 0, the “Plant response rating, C. ragweed” value ([7]; Rate 500 g/ha) was 0 and the “Plant response rating, Itchgrass” value [8, 18] was 0. The “Plant response rating, Itchgrass” value [8, 19] was 0, the “Plant response rating, Itchgrass” value [8, 20] was 0 and the “Plant response rating, Itchgrass” value [8, 21] was 0. The “Plant response rating, Itchgrass” value ([8]; Rate 250 g/ha) was 10, the “Plant response rating, Itchgrass” value ([8]; Rate 500 g/ha) was 20 and the “Plant response rating, Large crabgrass” value [9, 18] was 0. For the same molecule, the “Plant response rating, Large crabgrass” value [9, 19] was 40, the “Plant response rating, Large crabgrass” value [9, 20] was 98 and the “Plant response rating, Large crabgrass” value [9, 21] was 100. For the same molecule, the “Plant response rating, Large crabgrass” value ([9]; Rate 250 g/ha) was 100, the “Plant response rating, Large crabgrass” value ([9]; Rate 500 g/ha) was 100 and the “Plant response rating, Green foxtail” value ([10]; Preemergence; Rate 16 g/ha; 0 to 100 scale, 0 no injury, 100 complete control) was 0. The “Plant response rating, Green foxtail” value ([10]; Preemergence; Rate 32 g/ha; 0 to 100 scale, 0 no injury, 100 complete control) was 75, the “Plant response rating, Green foxtail” value [10, 22] was 0 and the “Plant response rating, Green foxtail” value [10, 23] was 75. The “Green foxtail plant response rating” value [10, 24] was 85, the “Plant response rating, Green foxtail” value [10, 24] was 85 and the “Green foxtail plant response rating” value [10, 25] was 100. The “Plant response rating, Green foxtail” value [10, 25] was 100, the “Plant response rating, Green foxtail” value [10, 26] was 100 and the “Plant response rating, Green foxtail” value [10, 27] was 100. The “Plant response rating, Sandbur” value [11, 18] was 0, the “Plant response rating, Sandbur” value [11, 19] was 0 and the “Sandbur plant response rating” value [11, 20] was 0. The “Sandbur plant response rating” value [11, 21] was 0, the “Plant response rating, Sandbur” value ([11]; Rate 250 g/ha) was 75 and the “Plant response rating, Sandbur” value ([11]; Rate 500 g/ha) was 80. The “Plant response rating, Spanishneedles” value [12, 18] was 0, the “Plant response rating, Spanishneedles” value [12, 19] was 0 and the “Spanishneedles plant response rating” value [12, 20] was 0. For the same molecule, the “Spanishneedles plant response rating” value [12, 21] was 0, the “Plant response rating, Spanishneedles” value ([12]; Rate 500 g/ha) was 0 and the “Plant response rating, Purple nutsedge” value [13, 18] was 0. For the same molecule, the “Plant response rating, Purple nutsedge” value [13, 19] was 0, the “Purple nutsedge plant response rating” value [13, 20] was 0 and the “Purple nutsedge plant response rating” value [13, 21] was 0. For the same molecule, the “Plant response rating, Purple nutsedge” value ([13]; Rate 250 g/ha) was 0, the “Plant response rating, Purple nutsedge” value ([13]; Rate 500 g/ha) was 0 and the “Plant response rating, Bermudagrass” value [14, 18] was 75. For the same molecule, the “Plant response rating, Bermudagrass” value [14, 19] was 85, the “Plant response rating, Bermudagrass” value [14, 20] was 90 and the “Plant response rating, Bermudagrass” value [14, 21] was 98. For the same molecule, the “Plant response rating, Bermudagrass” value ([14]; Rate 250 g/ha) was 100, the “Plant response rating, Bermudagrass” value ([14]; Rate 500 g/ha) was 100 and the “Plant response rating, P. morninglory” value [15, 18] was 0. The “Plant response rating, P. morninglory” value [15, 19] was 0, the “Plant response rating, P. morninglory” value [15, 20] was 0 and the “Plant response rating, P. morninglory” value [15, 21] was 0. For the same molecule, the “Plant response rating, P. morninglory” value ([15]; Rate 250 g/ha) was 0, the “Plant response rating, P. morninglory” value ([15]; Rate 500 g/ha) was 0 and the “Plant response rating, Surinam grass” value [16, 22] was 0. The “Plant response rating, Surinam grass” value [16, 23] was 0, the “Surinam grass plant response rating” value [16, 24] was 20 and the “Surinam grass plant response rating” value [16, 25] was 30. For the same molecule, the “Plant response rating, Surinam grass” value [16, 26] was 85, the “Plant response rating, Surinam grass” value [16, 27] was 96 and the “Plant response rating, Surinam grass” value ([16]; Rate 500 g/ha; Preemergence; 0 to 100 scale) was 98. For the same molecule, the “Plant response rating, C. purslane” value [17, 18] was 0, the “Plant response rating, C. purslane” value [17, 19] was 0 and the “Plant response rating, C. purslane” value [17, 20] was 0. The “Plant response rating, C. purslane” value [17, 21] was 0, the “Plant response rating, C. purslane” value ([17]; Rate 250 g/ha) was 0 and the “Plant response rating, C. purslane” value ([17]; Rate 500 g/ha) was 0.
